Assays:
TLR4 = TLR4 activity in HEK NF-κB reporter cells, species not told apart in the text; assay type: cell-based, human and mouse; settings: HEK-Blue hTLR4 and mTLR4, Figure 1C
Procedure: (§1) Figure 1 Structure-activity relationship studies in TLR4 agonistic pyrimidoindoles. (A) Syntheses of C8-alkynyl and C8-alkyl analogs. (B) Syntheses of C8-aryl analogs. (C) Scatter plot of hTLR4 and mTLR4 agonistic activity in TLR4-NF-κB HEK reporter cells (HEK-Blue™ hTLR4 and HEK-Blue™ mTLR4, respectively). NF-κB inducible NF-κB SEAP levels in culture supernatants were measured according to manufacturer's protocol. The TLR4 agonistic potency was evaluated as area under the curve (AUC) calculated for dose response curve using 2-fold serial dilutions from 10 μM, and normalized to the AUC for 2B110 as 100% on both axes. […] The color of each point is based on cell viability in TLR4-NF-κB reporter cells for compounds evaluated at 5 μM concentration. Viability data was normalized to vehicle control (Vehicle OD570−650 = 0.58 ± 0.01). (D) Structures of the lead compounds with differences at C8 substitution highlighted in blue.
(§2) Titration curves of 1Z105 and derivatives were used to assess their potency in stimulating human and mouse TLR4 response using HEK NF-κB reporter cells (HEK-Blue™ hTLR4 and mTLR4, respectively). The areas under the curve for dose response curves relative to vehicle (0.5% DMSO) were normalized to the greatest activity as 100% of 2B110 for both assays (Figure 1C). The compounds were also tested for in vitro toxicity by MTT assay (Figure 1C, Supplementary Figure 1).
(§3) TLR4/NF-κB activation was assessed using HEK-Blue™ hTLR4 and HEK-Blue™ mTLR4 (InvivoGen). The cells were treated with 1Z105 and 2B182C (2-fold serial dilutions starting from 10 μM) for 20 h. NF-κB inducible secreted embryonic alkaline phosphatase (SEAP) protein in the culture supernatant was measured according to manufacturer's protocol. To evaluate cell viability, 0.5 mg/mL 3-[4,5-dimethylthiazol-2-yl]-2,5-dipheyl tetrazolium bromide (MTT, Thermo Fisher Scientific) solution was added to each well and incubated at 37°C. Six hours later, formazan crystals were lysed with lysis buffer (15% SDS and 0.12% 12 N HCl) and the absorbance was measured at 570 nm using 650 nm as a reference with a plate reader (Tecan, Switzerland).

human TLR4 = target: T1, human TLR4 (Homo sapiens, UniProt O00206+Q9Y6Y9); experiment: TLR4/NF-κB reporter cell assay (SEAP), HEK-Blue hTLR4; assay type: cell-based; settings: for human TLR4 agonistic activity (in words): AUC normalized to 2B110 as 100%, Figure 1C
T1 construct: host or cells: HEK-Blue hTLR4 (HEK293-derived NF-κB/SEAP reporter cells)
Procedure: as §1, §2, §3

mouse TLR4 = target: T2, mouse TLR4 (Mus musculus, UniProt Q9JHF9+Q9QUK6); experiment: TLR4/NF-κB reporter cell assay (SEAP), HEK-Blue mTLR4; assay type: cell-based; settings: for murine TLR4 agonistic activity (in words): AUC normalized to 2B110 as 100%, Figure 1C
T2 construct: host or cells: HEK-Blue mTLR4 (HEK293-derived NF-κB/SEAP reporter cells)
T2 sequence (Q9QUK6 26-835): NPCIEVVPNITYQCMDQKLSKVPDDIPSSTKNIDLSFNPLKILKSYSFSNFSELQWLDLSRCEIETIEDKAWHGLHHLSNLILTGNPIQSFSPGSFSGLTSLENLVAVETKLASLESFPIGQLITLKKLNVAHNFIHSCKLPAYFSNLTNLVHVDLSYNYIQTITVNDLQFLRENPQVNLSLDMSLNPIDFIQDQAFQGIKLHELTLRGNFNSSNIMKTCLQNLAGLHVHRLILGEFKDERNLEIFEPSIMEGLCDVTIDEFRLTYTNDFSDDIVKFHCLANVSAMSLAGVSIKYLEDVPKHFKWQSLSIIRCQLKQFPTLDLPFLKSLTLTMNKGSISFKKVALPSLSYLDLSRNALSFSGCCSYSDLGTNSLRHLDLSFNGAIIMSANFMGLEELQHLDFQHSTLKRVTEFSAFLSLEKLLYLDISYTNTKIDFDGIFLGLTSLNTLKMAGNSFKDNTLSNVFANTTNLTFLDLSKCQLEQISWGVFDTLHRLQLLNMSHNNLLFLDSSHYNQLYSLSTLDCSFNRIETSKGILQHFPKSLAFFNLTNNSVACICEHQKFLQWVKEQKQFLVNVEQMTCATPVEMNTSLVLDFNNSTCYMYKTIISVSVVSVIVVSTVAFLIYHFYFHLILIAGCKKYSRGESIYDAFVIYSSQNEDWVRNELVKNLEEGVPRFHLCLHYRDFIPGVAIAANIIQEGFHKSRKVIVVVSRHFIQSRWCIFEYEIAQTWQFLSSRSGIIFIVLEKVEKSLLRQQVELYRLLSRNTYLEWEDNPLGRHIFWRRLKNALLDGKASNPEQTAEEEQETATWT
T2 sequence (Q9JHF9 19-160): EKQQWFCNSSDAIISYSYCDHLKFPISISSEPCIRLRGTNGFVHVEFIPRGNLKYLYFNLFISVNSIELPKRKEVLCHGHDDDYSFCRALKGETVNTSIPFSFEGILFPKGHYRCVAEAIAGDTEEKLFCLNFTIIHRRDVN
Procedure: as §1, §2, §3

[1] = test system: TLR4-NF-κB reporter cells; experiment: MTT cell viability in TLR4-NF-κB reporter cells; assay type: cell-based; settings: for toxicity in cell-based MTT assay (in words): viability at 5 μM in Figure 1C, normalized to vehicle
Procedure: as §1, §3

[2] = test system: HEK-Blue mTLR4 reporter cells; experiment: MTT cell viability, murine TLR4 reporter cells; assay type: cell-based; settings: concentrations below 10 µM, MTT
Procedure: as §3
Human TLR4 reporter cells Murine TLR4 reporter cells
[Compound] 1 μM 10 [Compound] 1 μM 10
Supplementary Figure 1. Dose response curves for cell viability (toxicity) of lead compounds in human and murine TLR4-NF-κB reporter cells. Cellular toxicity evaluated by MTT assay is presented as % viability normalized to vehicle (0.5% DMSO) as 100%. While 1Z105 had minimal toxicity in both hTLR4 and mTLR4 reporter cells (HEK-BlueTM hTLR4 and HEK-BlueTM mTLR4, […]
(also on this page, place not known: %Relative (Normalized 100%) 101101 viability vehicle as to)

[3] = 2-fold serial dilutions from 10 μM, the value taken as 100% for normalisation

T1 sequence (O00206 24-839): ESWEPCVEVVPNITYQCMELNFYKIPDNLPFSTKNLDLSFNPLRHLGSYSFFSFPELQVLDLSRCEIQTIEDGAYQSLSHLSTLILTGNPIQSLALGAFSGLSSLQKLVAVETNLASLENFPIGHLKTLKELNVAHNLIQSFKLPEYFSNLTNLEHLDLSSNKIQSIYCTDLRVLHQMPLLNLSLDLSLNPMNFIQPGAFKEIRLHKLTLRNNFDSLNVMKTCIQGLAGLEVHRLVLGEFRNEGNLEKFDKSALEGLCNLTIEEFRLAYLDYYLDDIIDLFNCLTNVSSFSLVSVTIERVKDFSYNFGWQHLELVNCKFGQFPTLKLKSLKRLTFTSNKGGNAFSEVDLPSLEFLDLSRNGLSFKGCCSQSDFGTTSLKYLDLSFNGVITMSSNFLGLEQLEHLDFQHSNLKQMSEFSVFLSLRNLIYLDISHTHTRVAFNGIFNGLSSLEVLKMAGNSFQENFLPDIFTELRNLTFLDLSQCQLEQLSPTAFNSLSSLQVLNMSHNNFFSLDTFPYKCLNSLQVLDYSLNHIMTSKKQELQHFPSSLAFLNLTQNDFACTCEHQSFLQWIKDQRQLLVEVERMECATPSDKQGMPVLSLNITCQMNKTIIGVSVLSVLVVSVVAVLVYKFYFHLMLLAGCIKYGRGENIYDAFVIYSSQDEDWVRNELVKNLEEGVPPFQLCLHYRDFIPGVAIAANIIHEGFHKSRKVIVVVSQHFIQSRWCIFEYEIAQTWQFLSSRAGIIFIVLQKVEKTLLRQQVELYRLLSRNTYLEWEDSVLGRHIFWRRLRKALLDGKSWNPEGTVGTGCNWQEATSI
T1 sequence (Q9Y6Y9 17-160 limits assumed): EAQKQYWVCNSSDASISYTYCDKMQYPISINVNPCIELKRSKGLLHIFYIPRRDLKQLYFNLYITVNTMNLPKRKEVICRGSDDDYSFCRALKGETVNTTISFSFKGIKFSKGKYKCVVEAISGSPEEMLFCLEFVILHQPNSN

SMILES: CCCCCC#Cc1ccc2c(c1)c1nc(SCC(=O)NC3CCCCC3)n(-c3ccccc3)c(=O)c1n2C [6c]
- TLR4 activity (species not told apart) (TLR4): reduction in TLR4 activity

SMILES: Cn1c2ccc(-c3cccc(C(=O)O)c3)cc2c2nc(SCC(=O)NC3CCCCC3)n(-c3ccccc3)c(=O)c21 [8l]
- human TLR4 agonistic activity (in words) (human TLR4): significant loss
- murine TLR4 agonistic activity (in words) (mouse TLR4): significant loss

SMILES: Cn1c2ccc(-c3cccc(N)c3)cc2c2nc(SCC(=O)NC3CCCCC3)n(-c3ccccc3)c(=O)c21 [8k]
- human TLR4 agonistic activity (in words) (human TLR4): significant loss
- murine TLR4 agonistic activity (in words) (mouse TLR4): significant loss

SMILES: CCCCCCCCCCC#Cc1ccc2c(c1)c1nc(SCC(=O)NC3CCCCC3)n(-c3ccccc3)c(=O)c1n2C [6d]
- TLR4 activity (species not told apart) (TLR4): completely inactive

SMILES: CCCC#Cc1ccc2c(c1)c1nc(SCC(=O)NC3CCCCC3)n(-c3ccccc3)c(=O)c1n2C [6b]
- TLR4 activity (species not told apart) (TLR4): highest level of TLR4 activation

SMILES: Cn1c2ccc(-c3cccc([N+](=O)[O-])c3)cc2c2nc(SCC(=O)NC3CCCCC3)n(-c3ccccc3)c(=O)c21 [8o]
- human TLR4 agonistic activity (in words) (human TLR4): less potent than 2B110
- murine TLR4 agonistic activity (in words) (mouse TLR4): retained murine TLR4 activity

SMILES: C#Cc1ccc2c(c1)c1nc(SCC(=O)NC3CCCCC3)n(-c3ccccc3)c(=O)c1n2C [6a]
- TLR4 activity (species not told apart) (TLR4): reduction in TLR4 activity

SMILES: COc1cccc(-c2ccc3c(c2)c2nc(SCC(=O)NC4CCCCC4)n(-c4ccccc4)c(=O)c2n3C)c1 [8h]
- human TLR4 agonistic activity (in words) (human TLR4): dramatic loss of human TLR4 activity

SMILES: CCCCc1ccc(-c2ccc3c(c2)c2nc(SCC(=O)NC4CCCCC4)n(-c4ccccc4)c(=O)c2n3C)cc1 [8e]
- TLR4 activity (species not told apart) (TLR4): maintaining TLR4 activity
- toxicity in cell-based MTT assay (in words) [1]: relatively high toxicity

SMILES: Cn1c2ccc(-c3cccc(-c4ccccc4)c3)cc2c2nc(SCC(=O)NC3CCCCC3)n(-c3ccccc3)c(=O)c21 [8f]
- human TLR4 agonistic activity (in words) (human TLR4): dramatic loss of human TLR4 activity

SMILES: Cn1c2ccc(-c3cccc(C#N)c3)cc2c2nc(SCC(=O)NC3CCCCC3)n(-c3ccccc3)c(=O)c21 [8n]
- human TLR4 agonistic activity (in words) (human TLR4): less potent than 2B110
- murine TLR4 agonistic activity (in words) (mouse TLR4): retained murine TLR4 activity

SMILES: Cn1c2ccc(-c3ccccc3)cc2c2nc(SCC(=O)NC3CCCCC3)n(-c3ccccc3)c(=O)c21 [2B110]
- AUC of dose response curve, hTLR4 reporter cells (human TLR4; [3]): 14.95 ± 1.95
- human TLR4 agonistic activity (in words) (human TLR4): high TLR4 stimulatory potency
- AUC of dose response curve, mTLR4 reporter cells (mouse TLR4; [3]): 28.43 ± 5.49 units
- murine TLR4 agonistic activity (in words) (mouse TLR4): high TLR4 stimulatory potency
- toxicity at 10 µM (in words) ([1]; 10 µM, MTT, Supplementary Figure 1): exhibited toxicity
- toxicity in cell-based MTT assay (in words) [1]: slightly higher toxicity in MTT assays than did 2B182C
- toxicity at lower concentrations, mTLR4 reporter cells (in words) [2]: more toxic compared to 8s

SMILES: Cn1c2ccc(-c3cccc(O)c3)cc2c2nc(SCC(=O)NC3CCCCC3)n(-c3ccccc3)c(=O)c21 [8m]
- human TLR4 agonistic activity (in words) (human TLR4): significant loss
- murine TLR4 agonistic activity (in words) (mouse TLR4): significant loss

SMILES: CCc1ccc(-c2ccc3c(c2)c2nc(SCC(=O)NC4CCCCC4)n(-c4ccccc4)c(=O)c2n3C)cc1 [8d]
- TLR4 activity (species not told apart) (TLR4): maintaining TLR4 activity
- toxicity in cell-based MTT assay (in words) [1]: relatively high toxicity
